Laboratory results reported in ChEMBL document CHEMBL4699665, “Discovery of ANT3310, a Novel Broad-Spectrum Serine β-Lactamase Inhibitor of the Diazabicyclooctane Class, Which Strongly Potentiates Meropenem Activity against Carbapenem-Resistant Enterobacterales and Acinetobacter baumannii” (J Med Chem, 2020).
Converted amounts (≈) assume the structure as drawn.

Experiments:
[1] = Inhibition of beta lactamase OXA-48 in Enterobacter cloacae assessed as decrease in enzyme activity using nitrocefin as substrate preincubated for 10 mins followed by substrate addition measured for 10 mins by fluorescence plate reader analysis
[2] = Inhibition of beta lactamase CTXM-15 in Enterobacter cloacae assessed as decrease in enzyme activity using nitrocefin as substrate preincubated for 10 mins followed by substrate addition measured for 10 mins by fluorescence plate reader analysis
Klebsiella pneumoniae [3] = assay: Potentiation of meropenem-induced antibacterial activity against Klebsiella pneumoniae expressing TEM-1/SHV-11/KPC-3 assessed as meropenem MIC at 4 ug/ml by broth microdilution method (reference value: 128 ug/ml); type: functional; conditions: dose 4 µg/ml
Acinetobacter baumannii [4] = assay: Potentiation of meropenem-induced antibacterial activity against Acinetobacter baumannii expressing OXA-23 assessed as meropenem MIC at 4 ug/ml by broth microdilution method (reference value: 32 ug/ml); type: functional; conditions: dose 4 µg/ml
[5] = Inhibition of beta lactamase KPC-2 in Enterobacter cloacae assessed as decrease in enzyme activity using nitrocefin as substrate preincubated for 10 mins followed by substrate addition measured for 10 mins by fluorescence plate reader analysis
Klebsiella pneumoniae [6] = assay: Potentiation of meropenem-induced antibacterial activity against Klebsiella pneumoniae expressing SHV-11/OXA-121 assessed as meropenem MIC at 4 ug/ml by broth microdilution method (reference value: 16 ug/ml); type: functional; conditions: dose 4 µg/ml
[7] = Inhibition of beta lactamase TEM-1 in Enterobacter cloacae assessed as decrease in enzyme activity using nitrocefin as substrate preincubated for 10 mins followed by substrate addition measured for 10 mins by fluorescence plate reader analysis
[8] = Inhibition of beta lactamase AmpC in Enterobacter cloacae assessed as decrease in enzyme activity using nitrocefin as substrate preincubated for 10 mins followed by substrate addition measured for 10 mins by fluorescence plate reader analysis
Klebsiella pneumoniae [9] = assay: Potentiation of meropenem-induced antibacterial activity against Klebsiella pneumoniae expressing TEM-OSBL/CTX-M-14/OXA-48 assessed as meropenem MIC at 4 ug/ml by broth microdilution method (reference value: 16 ug/ml); type: functional; conditions: dose 4 µg/ml
Enterobacter cloacae [10] = assay: Potentiation of meropenem-induced antibacterial activity against Enterobacter cloacae expressing TEM-1/KPC-2 assessed as meropenem MIC at 4 ug/ml by broth microdilution method (reference value: 8 ug/ml); type: functional; conditions: dose 4 µg/ml
[11] = Inhibition of bacteria beta lactamase OXA-23 assessed as decrease in enzyme activity using nitrocefin as substrate preincubated for 10 mins followed by substrate addition measured for 10 mins by fluorescence plate reader analysis
[12] = Volume of distribution in rat at 1 mg/kg, iv; type: ADME, organism-based; conditions: in vivo
Klebsiella pneumoniae [13] = assay: Antibacterial activity against Klebsiella pneumoniae expressing SHV-11/OXA-181 by broth microdilution method; type: functional
[14] = Half life in rat at 1 mg/kg, iv; type: ADME, organism-based; conditions: in vivo
[15] = AUC in rat at 1 mg/kg, iv; type: ADME, organism-based; design: dose 1 mg/kg; conditions: in vivo
Klebsiella pneumoniae [16] = assay: Antibacterial activity against Klebsiella pneumoniae expressing TEM-1/SHV-11/KPC-3 by broth microdilution method; type: functional
Enterobacter cloacae [17] = assay: Antibacterial activity against Enterobacter cloacae expressing TEM-1/KPC-2 by broth microdilution method; type: functional
Klebsiella pneumoniae [18] = assay: Antibacterial activity against Klebsiella pneumoniae expressing TEM-OSBL/CTX-M-14/OXA-48 by broth microdilution method; type: functional
Acinetobacter baumannii [19] = assay: Antibacterial activity against Acinetobacter baumannii expressing OXA-23 by broth microdilution method; type: functional
[20] = Clearance in rat at 1 mg/kg, iv; type: ADME, organism-based; conditions: in vivo
Enterobacter [21] = assay: Inhibition of beta lactamase OXA in carbapenem-resistant Enterobacter assessed as meropenem minimum concentration required for antibacterial activity at 4 ug/ml by broth microdilution method (reference value: 2 ug/ml); conditions: dose 4.0 µg/ml
Enterobacter [22] = assay: Inhibition of beta lactamase OXA in carbapenem-resistant Enterobacter assessed as meropenem-induced antibacterial activity by measuring meropenem MIC50 at 4 ug/ml by broth microdilution method (reference value: 16 ug/ml); conditions: dose 4.0 µg/ml
Enterobacter [23] = assay: Inhibition of beta lactamase OXA in carbapenem-resistant Enterobacter assessed as meropenem maximum concentration required for antibacterial activity at 4 ug/ml by broth microdilution method (Rvb > 32 ug/ml); conditions: dose 4.0 µg/ml
Acinetobacter baumannii [24] = assay: Inhibition of beta lactamase OXA in carbapenem-resistant Acinetobacter baumannii assessed as meropenem-induced antibacterial activity by measuring meropenem MIC50 at 4 ug/ml by broth microdilution method (Rvb > 32 ug/ml); conditions: dose 4.0 µg/ml
Enterobacter [25] = assay: Inhibition of beta lactamase KPC in carbapenem-resistant Enterobacter assessed as meropenem maximum concentration required for antibacterial activity at 4 ug/ml by broth microdilution method (Rvb >32 ug/ml); conditions: dose 4.0 µg/ml
Enterobacter [26] = assay: Inhibition of beta lactamase KPC in carbapenem-resistant Enterobacter assessed as meropenem-induced antibacterial activity by measuring meropenem MIC50 at 4 ug/ml by broth microdilution method (Rvb >32 ug/ml); conditions: dose 4.0 µg/ml
Acinetobacter baumannii [27] = assay: Inhibition of beta lactamase OXA in carbapenem-resistant Acinetobacter baumannii assessed as meropenem minimum concentration required for antibacterial activity at 4 ug/ml by broth microdilution method (reference value: 8 ug/ml); conditions: dose 4.0 µg/ml
Enterobacter [28] = assay: Inhibition of beta lactamase OXA in carbapenem-resistant Enterobacter assessed as meropenem-induced antibacterial activity by measuring meropenem MIC 90 at 4 ug/ml by broth microdilution method (Rvb >32 ug/ml); conditions: dose 4.0 µg/ml
Acinetobacter baumannii [29] = assay: Inhibition of beta lactamase OXA in carbapenem-resistant Acinetobacter baumannii assessed as meropenem-induced antibacterial activity by measuring meropenem MIC90 at 4 ug/ml by broth microdilution method (Rvb > 32 ug/ml); conditions: dose 4.0 µg/ml
Enterobacter [30] = assay: Inhibition of beta lactamase KPC in carbapenem-resistant Enterobacter assessed as meropenem-induced antibacterial activity by measuring meropenem MIC90 at 4 ug/ml by broth microdilution method (Rvb >32 ug/ml); conditions: dose 4.0 µg/ml
Acinetobacter baumannii [31] = assay: Inhibition of beta lactamase OXA in carbapenem-resistant Acinetobacter baumannii assessed as meropenem maximum concentration required for antibacterial activity at 4 ug/ml by broth microdilution method (Rvb > 32 ug/ml); conditions: dose 4.0 µg/ml
Enterobacter [32] = assay: Inhibition of beta lactamase KPC in carbapenem-resistant Enterobacter assessed as meropenem minimum concentration required for antibacterial activity at 4 ug/ml by broth microdilution method (reference value: 4 ug/ml); conditions: dose 4.0 µg/ml

Row | IC50 [1] [µM] | IC50 [2] [µM] | MIC (Klebsiella pneumoniae [3]) [µg/mL] | MIC (Acinetobacter baumannii [4]) [µg/mL] | IC50 [5] [µM] | MIC (Klebsiella pneumoniae [6]) [µg/mL] | IC50 [7] [µM] | IC50 [8] [µM] | MIC (Klebsiella pneumoniae [9]) [µg/mL] | MIC (Enterobacter cloacae [10]) [µg/mL] | IC50 [11] [µM] | Structure (SMILES) | further results
1 | 1.34 | 1.2 | 64 | 32 | > 3 | 8 | 0.511 | > 3 | 4 | 2 | > 3 | O=C1N2CCC[C@H](C2)N1OS(=O)(=O)[O-].[Na+] | 
2 | 1.11 | 0.019 | 8 | 32 | 0.003 | 16 | 0.216 | 0.001 | 16 | 0.125 | > 3 | O=C1N2C[C@@H](CC[C@H]2C(F)(F)c2nccs2)N1OS(=O)(=O)[O-].[Na+] | 
3 | 0.178 | 0.178 | 2 | 32 | 0.004 | 16 | 0.403 | 0.052 | 16 | 0.06 | 1.68 | O=C1N2C[C@@H](CC[C@H]2C(Cl)Cl)N1OS(=O)(=O)[O-].[Na+] | 
4 | 0.154 | 0.119 | 2 | 32 | 0.051 | 1 | 0.492 | 0.304 | 1 | 0.125 | > 3 | O=C1N2C[C@@H](CC[C@H]2CF)N1OS(=O)(=O)[O-].[Na+] | 
5 | 0.169 | 0.2 | 2 | 32 | 0.043 | 16 | 0.267 | 0.313 | 8 | 0.06 | > 3 | CC(F)(F)[C@@H]1CC[C@@H]2CN1C(=O)N2OS(=O)(=O)[O-].[Na+] | 
6 | 0.443 | 0.084 | 2 | 32 | 0.028 | 16 | 0.135 | 0.026 | 8 | 0.06 | > 3 | O=C1N2C[C@@H](CC[C@H]2CCl)N1OS(=O)(=O)[O-].[Na+] | 
7 | 0.015 | 0.002 | 8 | 32 | 0.015 | 16 | 0.001 | < 0.001 | 8 | 0.06 |  | O=C1N2C[C@@H](CC[C@H]2S(=O)(=O)C(F)(F)F)N1OS(=O)(=O)[O-].[Na+] | 
8 | 0.064 | 0.017 | 1 | 16 | 0.007 | 1 | 0.208 | 0.035 | 2 | 0.06 | 1.6 | O=C1N2C[C@@H](CC[C@H]2C(F)F)N1OS(=O)(=O)[O-].[Na+] | 
9 | 0.269 | 0.008 | 64 | 32 | 0.031 | 4 | 0.001 | 0.004 | 4 | 0.06 |  | O=C1N2C[C@@H](CC[C@H]2Cl)N1OS(=O)(=O)[O-].[Na+] | 
10 |  |  |  |  |  |  |  |  |  |  |  | O=C(NNC(=O)[C@@H]1CC[C@@H]2CN1C(=O)N2OS(=O)(=O)O)[C@@H]1CCCNC1 [ZIDEBACTAM] | MIC (Klebsiella pneumoniae [13]): 2 µg/mL (≈ 5.11 µM); MIC (Klebsiella pneumoniae [16]): 2 µg/mL (≈ 5.11 µM); MIC (Enterobacter cloacae [17]): 0.5 µg/mL (≈ 1.28 µM); MIC (Klebsiella pneumoniae [18]): 0.25 µg/mL (≈ 0.639 µM); MIC (Acinetobacter baumannii [19]): > 128 µg/mL
11 | 0.019 | 0.01 | 2 | 16 | 0.006 | 2 | 0.81 | 0.004 | 2 | 0.06 | 0.81 | O=C1N2C[C@@H](CC[C@H]2C(F)(F)F)N1OS(=O)(=O)[O-].[Na+] | 
12 | 0.099 | 0.01 | 4 | 32 | 0.002 | 8 | 0.026 | 0.002 | 8 | 0.03 | 1.32 | O=C1N2C[C@@H](CC[C@H]2SC(F)(F)F)N1OS(=O)(=O)[O-].[Na+] | 
13 | 0.015 | 0.011 | 32 | 32 | 0.013 | 16 | 0.117 | 0.023 | 8 | 0.25 | > 3 | O=C1N2C[C@@H](CC[C@H]2COC(F)(F)F)N1OS(=O)(=O)[O-].[Na+] | 

Row | Structure (SMILES) | IC50 [1] [µM] | IC50 [2] [µM] | MIC (Klebsiella pneumoniae [3]) [µg/mL] | MIC (Acinetobacter baumannii [4]) [µg/mL] | IC50 [5] [µM] | MIC (Klebsiella pneumoniae [6]) [µg/mL] | IC50 [7] [µM] | IC50 [8] [µM] | MIC (Klebsiella pneumoniae [9]) [µg/mL] | MIC (Enterobacter cloacae [10]) [µg/mL] | IC50 [11] [µM] | further results
14 | NC(=O)[C@@H]1CC[C@@H]2CN1C(=O)N2OS(=O)(=O)O [AVIBACTAM] | 0.252 | 0.001 | 0.25 | 16 | 0.008 | 1 | 0.005 | 0.008 | 0.5 | 0.03 | > 3 | Vd [12]: 1.9 L/kg; MIC (Klebsiella pneumoniae [13]): 32 µg/mL (≈ 121 µM); half-life [14]: 22.2 min; AUC [15]: 279 ng·h/mL; MIC (Klebsiella pneumoniae [16]): 16 µg/mL (≈ 60.3 µM); MIC (Enterobacter cloacae [17]): 16 µg/mL (≈ 60.3 µM); MIC (Klebsiella pneumoniae [18]): 16 µg/mL (≈ 60.3 µM); MIC (Acinetobacter baumannii [19]): > 128 µg/mL; clearance [20]: 59 mL/min/kg
15 | N#C[C@@H]1CC[C@@H]2CN1C(=O)N2OS(=O)(=O)[O-].[Na+] | 0.002 | 0.004 | 0.5 | 4 | 0.008 | 0.25 | 0.067 | 0.003 | 0.06 | 0.06 | 0.059 | MIC (Enterobacter [21]): < 0.03 µg/mL; MIC50 (Enterobacter [22]): 0.12 µg/mL; Activity (Enterobacter [23]): 0.5 µg/mL; MIC50 (Acinetobacter baumannii [24]): 16 µg/mL; Activity (Enterobacter [25]): 16 µg/mL; MIC50 (Enterobacter [26]): 0.06 µg/mL; MIC (Acinetobacter baumannii [27]): 0.25 µg/mL; MIC90 (Enterobacter [28]): 0.25 µg/mL; MIC90 (Acinetobacter baumannii [29]): 32 µg/mL; MIC90 (Enterobacter [30]): 1 µg/mL; Activity (Acinetobacter baumannii [31]): > 32 µg/mL; MIC (Enterobacter [32]): < 0.03 µg/mL
